Test results: patent US9181273B2, “Morpholine-spirocyclic piperidine amides as modulators of ion channels” (Vertex Pharmaceuticals Incorporated, priority 2011, dated 2015)

target: human NaV subtype, like NaV 1.7 (Homo sapiens, UniProt Q15858); test: E-VIPR optical membrane potential assay with electrical stimulation; assay type: cell-based; settings: not given
Text: Sodium channels are voltage-dependent proteins that can be activated by inducing membrane voltage changes by applying electric fields. […] The instrument comprises a microtiter plate handler, an optical system for exciting the coumarin dye while simultaneously recording the coumarin and oxonol emissions, a waveform generator, a current- or voltage-controlled amplifier, and a device for inserting electrodes in well. Under integrated computer control, this instrument passes user-programmed electrical stimulus protocols to cells within the wells of the microtiter plate.
24 hours before the assay on E-VIPR, HEK cells expressing human NaV subtype, like NaV 1.7, are seeded in 384-well poly-lysine coated plates at 15,000-20,000 cells per well. Other subtypes are performed in an analogous mode in a cell line expressing the NaV of interest. […] Cells are grown in vented cap flasks, in 90% humidity and 10% CO2, to 100% confluence. They are usually split by trypsinization 1:10 or 1:20, depending on scheduling needs, and grown for 2-3 days before the next split.
To make the solution Add volume of 10% Pluronic F127 stock equal to volumes of CC2-DMPE+DiSBAC6(3). The order of preparation is first mix Pluronic and CC2-DMPE, then add DiSBAC6(3) while vortexing, then add Bath1+β-Cyclodextrin.
1) Pre-spot compounds (in neat DMSO) into compound plates. […] Final compound plate volume will be 80 μL (80-fold intermediate dilution from 1 μL DMSO spot; 160-fold final dilution after transfer to cell plate).
2) Prepare Hexyl Dye Solution.
3) Prepare cell plates. On the day of the assay, medium is aspirated and cells are washed three times with 100 μL of Bath1 Solution, maintaining 25 μL residual volume in each well.
4) Dispense 25 μL per well of Hexyl Dye Solution into cell plates. Incubate for 20-35 minutes at room temp or ambient conditions.
5) Dispense 80 μL per well of Bath1 into compound plates. Acid Yellow-17 (1 mM) is added and Potassium Chloride can be altered from 4.5 to 20 mM depending on the NaV subtype and assay sensitivity.
6) Wash cell plates three times with 100 μL per well of Bath1, leaving 25 μL of residual volume. Then transfer 25 uL per well from Compound Plates to Cell Plates. Incubate for 20-35 minutes at room temp/ambient condition
7) Read Plate on E-VIPR. Use the current-controlled amplifier to deliver stimulation wave pulses for typically 9 seconds and a scan rate of 400 Hz. A pre-stimulus recording is performed for 0.5 seconds to obtain the un-stimulated intensities baseline. The stimulatory waveform is applied for 9 seconds followed by 0.5 seconds of post-stimulation recording to examine the relaxation to the resting state. The stimulatory waveform of the electrical stimulation is specific for each cell type and can vary the magnitude, duration and frequency of the applied current to provide an optimal assay signal.
Data are analyzed and reported as normalized ratios of background-subtracted emission intensities measured in the 460 nm and 580 nm channels. Background intensities are then subtracted from each assay channel. Background intensities are obtained by measuring the emission intensities during the same time periods from identically treated assay wells in which there are no cells. The response as a function of time is then reported as the ratios obtained using the following formula: […]
The data is further reduced by calculating the initial (Ri) and final (Rf) ratios. These are the average ratio values during part or all of the pre-stimulation period, and during sample points during the stimulation period. The response to the stimulus R=Rf/Ri is then calculated and reported as a function of time.
Control responses are obtained by performing assays in the presence of a compound with the desired properties (positive control), such as tetracaine, and in the absence of pharmacological agents (negative control). Responses to the negative (N) and positive (P) controls are calculated as above. The compound antagonist activity A is defined as: […]

Chain of human NaV subtype, like NaV 1.7 (Q15858 whole entry): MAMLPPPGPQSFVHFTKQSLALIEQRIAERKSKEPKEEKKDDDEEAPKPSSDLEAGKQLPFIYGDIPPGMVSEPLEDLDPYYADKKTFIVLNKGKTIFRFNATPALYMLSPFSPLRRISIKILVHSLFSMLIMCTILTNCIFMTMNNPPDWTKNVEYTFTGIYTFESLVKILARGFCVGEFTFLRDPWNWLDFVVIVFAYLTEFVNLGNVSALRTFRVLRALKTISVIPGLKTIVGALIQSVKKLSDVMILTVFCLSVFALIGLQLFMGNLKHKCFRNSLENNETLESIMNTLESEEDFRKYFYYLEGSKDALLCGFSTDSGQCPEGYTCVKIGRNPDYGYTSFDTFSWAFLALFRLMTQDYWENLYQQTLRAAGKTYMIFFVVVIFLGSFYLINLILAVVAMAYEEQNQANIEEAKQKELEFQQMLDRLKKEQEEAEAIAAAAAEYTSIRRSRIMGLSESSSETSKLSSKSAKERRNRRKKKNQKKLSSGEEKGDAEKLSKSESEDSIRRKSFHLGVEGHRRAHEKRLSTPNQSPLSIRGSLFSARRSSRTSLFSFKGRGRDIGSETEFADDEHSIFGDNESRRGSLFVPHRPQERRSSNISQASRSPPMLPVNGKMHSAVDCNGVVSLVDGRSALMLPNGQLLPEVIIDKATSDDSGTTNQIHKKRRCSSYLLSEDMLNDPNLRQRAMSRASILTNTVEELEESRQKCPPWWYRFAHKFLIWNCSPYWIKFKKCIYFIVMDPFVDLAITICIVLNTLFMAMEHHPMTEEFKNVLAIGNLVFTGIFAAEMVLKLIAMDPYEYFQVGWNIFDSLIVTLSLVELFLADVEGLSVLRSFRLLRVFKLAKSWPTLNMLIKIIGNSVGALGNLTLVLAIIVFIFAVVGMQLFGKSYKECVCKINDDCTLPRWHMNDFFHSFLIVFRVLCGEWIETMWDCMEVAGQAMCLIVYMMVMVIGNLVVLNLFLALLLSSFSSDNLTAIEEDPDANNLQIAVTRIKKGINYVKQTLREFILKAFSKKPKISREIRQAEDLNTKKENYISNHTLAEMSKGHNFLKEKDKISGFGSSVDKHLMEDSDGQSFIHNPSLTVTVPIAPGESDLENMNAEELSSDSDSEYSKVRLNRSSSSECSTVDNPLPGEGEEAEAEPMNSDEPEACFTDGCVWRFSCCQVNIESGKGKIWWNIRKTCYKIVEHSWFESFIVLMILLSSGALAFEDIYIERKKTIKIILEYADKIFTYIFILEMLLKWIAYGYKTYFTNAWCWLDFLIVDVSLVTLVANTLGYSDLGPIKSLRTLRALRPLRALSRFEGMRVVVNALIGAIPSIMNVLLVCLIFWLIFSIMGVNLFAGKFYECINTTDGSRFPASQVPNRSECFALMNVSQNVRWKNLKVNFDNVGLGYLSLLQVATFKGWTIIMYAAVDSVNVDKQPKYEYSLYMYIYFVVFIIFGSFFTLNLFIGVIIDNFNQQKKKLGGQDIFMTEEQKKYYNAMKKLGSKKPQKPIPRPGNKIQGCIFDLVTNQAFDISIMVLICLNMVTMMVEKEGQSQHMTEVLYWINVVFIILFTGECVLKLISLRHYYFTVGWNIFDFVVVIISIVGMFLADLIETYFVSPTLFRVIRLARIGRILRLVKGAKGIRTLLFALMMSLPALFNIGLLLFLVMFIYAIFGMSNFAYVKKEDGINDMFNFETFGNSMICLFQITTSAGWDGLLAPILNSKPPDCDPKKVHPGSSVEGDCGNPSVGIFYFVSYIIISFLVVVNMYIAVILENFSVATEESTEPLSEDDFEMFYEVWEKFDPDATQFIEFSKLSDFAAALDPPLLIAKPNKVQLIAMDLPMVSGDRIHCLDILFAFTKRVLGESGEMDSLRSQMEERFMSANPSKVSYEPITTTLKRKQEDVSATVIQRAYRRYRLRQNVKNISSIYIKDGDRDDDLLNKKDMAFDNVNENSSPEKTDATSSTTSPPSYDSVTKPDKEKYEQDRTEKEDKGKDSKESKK

COc1cc(C(=O)N2CCC3(CC2)CN(CC(F)F)CC(c2ccccn2)O3)ccc1OC(C)C (stereo not drawn) [Compound 3] was tested, and the IC50 was less than 2 µM.

same assay, conditions: active against one or more sodium channels; assay and NaV subtype not specified for Table 3; read-out: IC50 Binned Activity Data

CCC1CN(c2ccccn2)CC2(CCN(C(=O)c3ccc(C4(O)CCCCC4)cc3)CC2)O1 (stereo not drawn) [Compound 54] and COCC1CN(c2ncccn2)CC2(CCN(C(=O)c3ccc(C4(O)CCCCC4)cc3)CC2)O1 (stereo not drawn) [Compound 237] cannot be ordered by IC50: less than 2 µM for the first, less than 2 µM for the second.

CC#CCN1CC(F)(F)OC2(CCN(C(=O)c3ccc(OC(C)C)c(C)c3)CC2)C1 [Compound 154] and CC#CCN1CC(CC)OC2(CCN(C(=O)c3ccc(OC(C)C)c(F)c3)CC2)C1 (stereo not drawn) [Compound 239] cannot be ordered by IC50: greater than 5 µM for the first, greater than 5 µM for the second.

Compared with Cc1cc(C(=O)N2CCC3(CC2)CN(Cc2ccccc2)CC(CO)O3)ccc1OC(C)C (stereo not drawn) [Compound 82], CCC1CN(c2ccccn2)CC2(CCN(C(=O)c3ccc(OC(C)C)c(C)c3)CC2)O1 (stereo not drawn) [Compound 295] is lower in IC50: 2 to 5 µM for the first, less than 2 µM for the second. The second is the more potent here.

CCN1CC(c2ncc(C)s2)OC2(CCN(C(=O)c3ccc(OC(C)C)c(C)c3)CC2)C1 (stereo not drawn) [Compound 250] and Cc1cccc(C2CN(CC(F)F)CC3(CCN(C(=O)c4ccc(OC(C)C)c(C)c4)CC3)O2)n1 (stereo not drawn) [Compound 37] cannot be ordered by IC50: less than 2 µM for the first, less than 2 µM for the second.

Going from Cc1cc(S(C)(=O)=O)ccc1C(=O)N1CCC2(CC1)CN(CC(F)(F)F)CC(c1ccccc1)O2 (stereo not drawn) [Compound 108] to Cc1cc(C(=O)N2CCC3(CC2)CN(CC(F)(F)F)CC(c2ccccc2)O3)ccc1C(C)(C)O (stereo not drawn) [Compound 98], the IC50 falls from greater than 5 µM to less than 2 µM. The second is the more potent here.

O=C(c1cccc(F)c1OC(F)F)N1CCC2(CC1)CN(CC(F)(F)F)CC(c1ccccc1)O2 (stereo not drawn) [Compound 299] and O=C(c1cccc(Cl)c1)N1CCC2(CC1)CN(CC(F)(F)F)CC(c1ccccc1)O2 (stereo not drawn) [Compound 155] cannot be ordered by IC50: greater than 5 µM for the first, greater than 5 µM for the second.

First: CCOc1cc(C(=O)N2CCC3(CC2)CN(CC)CC(c2ccccc2)O3)ccc1CO (stereo not drawn) [Compound 203]
Second: CCN1CC(c2ccccc2)OC2(CCN(C(=O)c3ccc(OC(C)C)c(F)c3)CC2)C1 (stereo not drawn) [Compound 227]
The IC50 of the first is higher: 2 to 5 µM for the first, less than 2 µM for the second.

First: CC(C)Oc1ccc(C(=O)N2CCC3(CC2)CN(CC(F)F)CC(c2cc[nH]n2)O3)cc1F (stereo not drawn) [Compound 226]
Second: CC(C)Oc1ccc(C(=O)N2CCC3(CC2)CN(CC(F)F)CC(c2ccccc2F)O3)cc1F (stereo not drawn) [Compound 45]
The IC50 of the first is higher: 2 to 5 µM for the first, less than 2 µM for the second.

Compared with Cc1cc(C(=O)N2CCC3(CC2)CN(CC(F)F)CC(c2ccc(F)cc2)O3)ccc1S(C)(=O)=O (stereo not drawn) [Compound 202], CC(C)(O)c1ccc(C(=O)N2CCC3(CC2)CN(CC(F)F)CC(c2ccc(F)cc2)O3)cc1F (stereo not drawn) [Compound 307] is lower in IC50: greater than 5 µM for the first, less than 2 µM for the second.

CC(C)(C)S(=O)(=O)c1ccc(C(=O)N2CCC3(CC2)CN(CC(F)F)CC(c2ccc(F)cc2)O3)cc1 (stereo not drawn) [Compound 269] and O=C(c1ccc(S(=O)(=O)NC2CC2)cc1)N1CCC2(CC1)CN(CC(F)F)CC(c1ccc(F)cc1)O2 (stereo not drawn) [Compound 280] fall in the same range of IC50: 2 to 5 µM for the first, 2 to 5 µM for the second.

COc1ccc(C(=O)N2CCC3(CC2)CN(CCC(C)C)C(=O)C(c2ccccc2)O3)cc1C(F)(F)F (stereo not drawn) [Compound 186] and CC(C)Oc1ccc(C(=O)N2CCC3(CC2)CN(CC(F)(F)F)CC(c2ccccc2)O3)cc1Cl (stereo not drawn) [Compound 213] cannot be ordered by IC50: less than 2 µM for the first, less than 2 µM for the second.

First: COCC1CN(c2ncccn2)CC2(CCN(C(=O)c3ccc(OC)c(C(F)(F)F)c3)CC2)O1 (stereo not drawn) [Compound 284]
Second: COCCOc1ccc(C(=O)N2CCC3(CC2)CN(c2ncccn2)CC(COC)O3)cc1OC (stereo not drawn) [Compound 125]
The IC50 of the first is lower: less than 2 µM for the first, greater than 5 µM for the second. The first is the more potent here.

Cc1cnc(C2CN(C(C)(C)C)CC3(CCN(C(=O)c4ccc(OC(C)C)c(C)c4)CC3)O2)o1 (stereo not drawn) [Compound 49] and CCC1CN(C(C)(C)C)CC2(CCN(C(=O)c3ccc(OC(C)C)c(C)c3)CC2)O1 (stereo not drawn) [Compound 18] cannot be ordered by IC50: less than 2 µM for the first, less than 2 µM for the second.

Going from COCC1CN(c2ncccn2)CC2(CCN(C(=O)c3ccc(C4(O)CCCC4)cc3)CC2)O1 (stereo not drawn) [Compound 300] to COCC1CN(c2ncccn2)CC2(CCN(C(=O)c3ccc(C(C)(C)O)cc3)CC2)O1 (stereo not drawn) [Compound 161], the IC50 rises from less than 2 µM to greater than 5 µM.

CCC1CN(c2ncccn2)CC2(CCN(C(=O)c3ccc(OC(C)C)c(C)c3)CC2)O1 (stereo not drawn) [Compound 236] and COCC1CN(c2ncccn2)CC2(CCN(C(=O)c3ccc(OC(C)C)c(C#N)c3)CC2)O1 (stereo not drawn) [Compound 303] cannot be ordered by IC50: less than 2 µM for the first, less than 2 µM for the second.

Compared with COc1cc(C(=O)N2CCC3(CC2)CN(CC(F)F)CC(c2ccc(F)cc2)O3)ccc1OC(C)(C)C (stereo not drawn) [Compound 247], CC(C)Oc1ccc(C(=O)N2CCC3(CC2)CN(CC(F)F)CC(c2ccc(F)cc2)O3)cc1Cl (stereo not drawn) [Compound 156] is lower in IC50: 2 to 5 µM for the first, less than 2 µM for the second.

COCC1CN(c2cccc(C#N)c2)CC2(CCN(C(=O)c3ccc(OC(C)C)c(C)c3)CC2)O1 (stereo not drawn) [Compound 228] and COCC1CN(c2cccc(C(F)(F)F)c2)CC2(CCN(C(=O)c3ccc(OC(C)C)c(C)c3)CC2)O1 (stereo not drawn) [Compound 258] cannot be ordered by IC50: less than 2 µM for the first, less than 2 µM for the second.

CCN1CC(c2ccccc2)OC2(CCN(C(=O)c3ccc(OC(C)C)c(OC)c3)CC2)C1 (stereo not drawn) [Compound 192] and COc1cc(C(=O)N2CCC3(CC2)CN(CC(F)F)CC(c2ccccc2)O3)ccc1OC(C)C (stereo not drawn) [Compound 219] cannot be ordered by IC50: less than 2 µM for the first, less than 2 µM for the second.

First: Cc1cc(C(=O)N2CCC3(CC2)CN(c2ncccn2)CCO3)ccc1OC(C)C [Compound 6]
Second: Cc1cc(C(=O)N2CCC3(CC2)CN(CC(F)F)CC(c2ccccn2)O3)ccc1OC(C)C (stereo not drawn) [Compound 33]
The IC50 of the first is higher: 2 to 5 µM for the first, less than 2 µM for the second.

First: Cc1cc(C(=O)N2CCC3(CC2)CN(CC(F)(F)F)CC(Cn2cccn2)O3)ccc1OC(C)C (stereo not drawn) [Compound 181]
Second: Cc1cc(C2CN(CC(F)(F)F)CC3(CCN(C(=O)c4ccc(OC(C)C)c(C)c4)CC3)O2)n[nH]1 (stereo not drawn) [Compound 26]
The IC50 of the first is higher: greater than 5 µM for the first, 2 to 5 µM for the second. The second is the more potent here.

First: COCC1CN(CC(=O)C2CC2)CC2(CCN(C(=O)c3ccc(OC(C)C)c(C)c3)CC2)O1 (stereo not drawn) [Compound 249]
Second: CCCCN1CC(COC)OC2(CCN(C(=O)c3ccc(OC(C)C)c(C)c3)CC2)C1 (stereo not drawn) [Compound 101]
The IC50 of the first is higher: 2 to 5 µM for the first, less than 2 µM for the second. The second is the more potent here.

CCC(CC)CN1CC(COC)OC2(CCN(C(=O)c3ccc(OC(C)C)c(C)c3)CC2)C1 (stereo not drawn) [Compound 112] and COCC1CN(C2CCC[C@@H](C)C2)CC2(CCN(C(=O)c3ccc(OC(C)C)c(C)c3)CC2)O1 (stereo partly drawn) [Compound 232] cannot be ordered by IC50: less than 2 µM for the first, less than 2 µM for the second.

First: CC(C)(O)COc1ccc(C(=O)N2CCC3(CC2)CN(CC(F)(F)F)CC(c2ccccc2)O3)cc1 (stereo not drawn) [Compound 273]
Second: CC(C)(O)c1ccc(C(=O)N2CCC3(CC2)CN(CC#N)CC(c2ccccc2)O3)cc1 (stereo not drawn) [Compound 275]
The IC50 of the first is lower: 2 to 5 µM for the first, greater than 5 µM for the second. The first is the more potent here.

COCC1CN(c2cccc(C(F)(F)F)c2)CC2(CCN(C(=O)c3ccc(C4(O)CCC4)cc3)CC2)O1 (stereo not drawn) [Compound 223] and COCC1CN(c2ncccc2OC)CC2(CCN(C(=O)c3ccc(OC(C)C)c(C)c3)CC2)O1 (stereo not drawn) [Compound 79] cannot be ordered by IC50: less than 2 µM for the first, less than 2 µM for the second.

First: CC(C)(O)c1ccc(C(=O)N2CCC3(CC2)CN(CC(F)F)CC(c2ccccn2)O3)cc1F (stereo not drawn) [Compound 57]
Second: COc1cc(C(=O)N2CCC3(CC2)CN(CC(F)F)CC(c2cccc(C)n2)O3)cc(F)c1OC(C)C (stereo not drawn) [Compound 162]
The IC50 of the first is lower: 2 to 5 µM for the first, greater than 5 µM for the second. The first is the more potent here.

First: COc1cc(C(=O)N2CCC3(CC2)CN(CC(F)(F)F)C(c2ccccc2)CO3)ccc1OC(C)C (stereo not drawn) [Compound 104]
Second: Cc1cc(C(=O)N2CCC3(CC2)CNCC(c2ccccc2)O3)ccc1OC(C)C (stereo not drawn) [Compound 163]
The IC50 of the first is lower: less than 2 µM for the first, greater than 5 µM for the second.

CC#CCN1CC(CC)OC2(CCN(C(=O)c3ccc(OC(C)C)c(Cl)c3)CC2)C1 (stereo not drawn) [Compound 52] and CC#CCN1CC(CC)OC2(CCN(C(=O)c3ccc(OCCC)c(C)c3)CC2)C1 (stereo not drawn) [Compound 217] cannot be ordered by IC50: less than 2 µM for the first, less than 2 µM for the second.

COC(=O)c1ccnc(N2CC(CO)OC3(CCN(C(=O)c4ccc(OC(C)C)c(C)c4)CC3)C2)n1 (stereo not drawn) [Compound 36] and CCN1CC(c2ccccc2)OC2(CCN(C(=O)c3ccc(OC(C)C)nc3)CC2)C1 (stereo not drawn) [Compound 308] cannot be ordered by IC50: greater than 5 µM for the first, greater than 5 µM for the second.
